How the values were obtained:
human ALK2 R206H = target: T1, human ALK2 R206H (Homo sapiens, UniProt Q04771, R206H); assay: Cell-based ALK2-R206H cell activity assay (Smad1-Ser463/Ser465 phosphorylation by AlphaLISA in HEK293-ALK2-R206H cells); conditions: read-out: Cell Line (Cell Assay IC50)
T1 construct: expressed in transfected cells; host or cells: HEK293 (ATCC CRL1573), lentivirus transduction, blasticidin selection
T1 sequence (Q04771 21-509 R206H): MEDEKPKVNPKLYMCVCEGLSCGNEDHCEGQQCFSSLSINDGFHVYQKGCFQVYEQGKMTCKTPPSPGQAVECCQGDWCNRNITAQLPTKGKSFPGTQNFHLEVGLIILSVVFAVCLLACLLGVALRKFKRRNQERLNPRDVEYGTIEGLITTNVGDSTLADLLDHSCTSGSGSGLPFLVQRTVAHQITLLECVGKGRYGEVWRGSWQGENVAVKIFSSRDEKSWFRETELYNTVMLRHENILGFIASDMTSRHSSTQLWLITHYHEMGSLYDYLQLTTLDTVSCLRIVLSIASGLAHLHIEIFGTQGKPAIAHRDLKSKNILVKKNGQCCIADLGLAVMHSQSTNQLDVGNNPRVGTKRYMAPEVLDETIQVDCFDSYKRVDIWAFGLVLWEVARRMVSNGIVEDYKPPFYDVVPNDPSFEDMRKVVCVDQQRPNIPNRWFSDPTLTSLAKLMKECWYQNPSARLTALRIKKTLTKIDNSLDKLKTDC
Outline: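 Stable HEK293 cells expressing C-terminally FLAG-tagged human ALK2 R206H (lentiviral, blasticidin-selected) were treated with compounds in 10-point, 3-fold dilutions from 10 μM or 1 μM top, in duplicate. Smad1 Ser463/Ser465 phosphorylation was read by AlphaLISA.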

[1] = target: T2, ALK2 R206H (GST-tagged mutant ALK2) (Homo sapiens, UniProt Q04771, R206H); assay: ALK binding assay (LANTHASCREEN TR-FRET competitive binding, displacement of Kinase Tracer 178); conditions: ALK2 R206H, LANTHASCREEN TR-FRET competitive binding; read-out: Binding Assay (IC50)
T2 construct: purchased Carna Bioscience or ThermoFisher 09-148 or PV6232
T2 sequence (Q04771 21-509 R206H): T1 sequence (Q04771 21-509 R206H)

Row | SMILES | IC50 (human ALK2 R206H) | IC50 [1]
1 | CC(C)N1CCC(c2ccc(-c3cc4c(N5CCN(C(=O)OC6CCC6)CC5)ccnn4c3)cc2)CC1 [Compound 621] | 100 to 500 nM | < 10 nM
2 | COC(=O)NC1(c2ccc(-c3cc4c(N5CCN(C(=O)C6CC6)CC5)ccnn4c3)cc2)CCNCC1 [Compound 622] | > 500 nM | < 10 nM
3 | CC(C)N1CC2(CN(c3ccc(-c4cc5c(N6CCN(C(=O)[C@H]7C[C@@H]7F)CC6)ccnn5c4)cc3)C2)C1 [Compound 623] | 100 to 500 nM | < 10 nM
4 | COC1(c2ccc(-c3cc4c(N5CCN(C(=O)C6CC6)CC5)ccnn4c3)nc2)CCN(C(C)C)CC1 [Compound 624] | < 100 nM | < 10 nM
5 | CC(C)NC(=O)N1CCN(c2ccnn3cc(-c4ccc(C5(C)CCN(C(C)C)CC5)cc4)cc23)CC1 [Compound 628] | < 100 nM | < 10 nM
6 | CC(C)N1CCC(c2ccc(-c3cc4c(N5CCN(C(=O)OC(C)(C)C)CC5)ccnn4c3)cc2)CC1 [Compound 632] | 100 to 500 nM | < 10 nM
7 | CCOC(=O)N1CCN(c2ccnn3cc(-c4ccc(C5(OC)CCN(C(C)C)CC5)cc4)cc23)CC1 [Compound 643] | < 100 nM | < 10 nM
8 | CCNC(=O)N1CCN(c2ccnn3cc(-c4ccc(C5(OC)CCN(C(C)C)CC5)cn4)cc23)CC1 [Compound 644] | < 100 nM | < 10 nM
9 | CCOC1(c2ccc(-c3cc4c(N5CCN(C(=O)C6CC6)CC5)ccnn4c3)cc2)CCN(C(C)C)CC1 [Compound 658] | < 100 nM | < 10 nM
10 | COC1(c2ccc(-c3cc4c(N5CCN(C(=O)C6CC6)[C@H](C)C5)ccnn4c3)cc2)CCN(C(C)C)CC1 [Compound 659] | < 100 nM | < 10 nM
11 | COC1(c2ccc(-c3cc4c(N5CCN(C(=O)C6CC6)CC5)ccnn4c3)nc2)CCN(C2COC2)CC1 [Compound 660] | < 100 nM | < 10 nM
12 | CC(C)N1CCC(c2ccc(-c3cc4c(N5CCN(C(=O)NCC6COC6)CC5)ccnn4c3)cc2)CC1 [Compound 661] | 100 to 500 nM | < 10 nM
13 | CCOC1(c2ccc(-c3cc4c(N5CCN(C(=O)C6CC6)CC5)ccnn4c3)nc2)CCN(C(C)C)CC1 [Compound 662] | < 100 nM | < 10 nM
14 | CC(C)N1CCC(c2ccc(-c3cc4c(N5CCN(C(=O)NCC(C)(C)C)CC5)ccnn4c3)cc2)CC1 [Compound 664] | 100 to 500 nM | < 10 nM
15 | CC(C)N1CCC(c2ccc(-c3cc4c(N5CCN(C(=O)OCC6COC6)CC5)ccnn4c3)cc2)CC1 [Compound 665] | < 100 nM | < 10 nM
16 | CC(C)N1CCC(c2ccc(-c3cc4c(N5CCN(C(=O)O[C@@H]6CCOC6)CC5)ccnn4c3)cc2)CC1 [Compound 666] | < 100 nM | < 10 nM
17 | CC(C)N1CCC(c2ccc(-c3cc4c(N5CCN(C(=O)O[C@H]6CCOC6)CC5)ccnn4c3)cc2)CC1 [Compound 667] | < 100 nM | < 10 nM
18 | CC(C)N1CCC(C)(c2ccc(-c3cc4c(N5CCN(C(=O)OC6COC6)CC5)ccnn4c3)cc2)CC1 [Compound 668] | 100 to 500 nM | < 10 nM
19 | CC(C)N1CCC(c2ccc(-c3cc4c(N5CCN(C(=O)OC6COC6)[C@H](C)C5)ccnn4c3)cc2)CC1 [Compound 669] | < 100 nM | < 10 nM
20 | CC(C)NC(=O)N1CCN(c2ccnn3cc(-c4ccc([C@]5(C)CN(C(C)C)CCN5C)cc4)cc23)CC1 [Compound 671] | < 100 nM | < 10 nM
21 | CC(C)NC(=O)N1CCN(c2ccnn3cc(-c4ccc([C@@]5(C)CN(C(C)C)CCN5C)cc4)cc23)CC1 [Compound 672] | < 100 nM | < 10 nM
22 | CCNC(=O)N1CCN(c2ccnn3cc(-c4ccc([C@]5(OCC)CCCN(C(C)C)C5)cc4)cc23)CC1 [Compound 673] | < 100 nM | < 10 nM

Other lines, results leading:

Row | IC50 (human ALK2 R206H) | IC50 [1] | SMILES
23 | < 100 nM | < 10 nM | CC(C)N1CCN(C)[C@@](C)(c2ccc(-c3cc4c(N5CCN(C(=O)C6CC6)CC5)ccnn4c3)cc2)C1 [Compound 620]
24 | < 100 nM | < 10 nM | CO[C@@]1(c2ccc(-c3cc4c(N5CCN(C(=O)C6CC6)CC5)ccnn4c3)nc2)CCCN(C(C)C)C1 [Compound 625]
25 | < 100 nM | < 10 nM | CO[C@]1(c2ccc(-c3cc4c(N5CCN(C(=O)C6CC6)CC5)ccnn4c3)nc2)CCCN(C(C)C)C1 [Compound 626]
26 | < 100 nM | < 10 nM | CC(C)N1CCC(c2ccc(-c3cc4c(N5CCN(C(=O)NC6COC6)CC5)ccnn4c3)cc2)CC1 [Compound 627]
27 | < 100 nM | < 10 nM | CC(C)N1CCC(c2ccc(-c3cc4c(N5CCN(C(=O)OC6COC6)CC5)ccnn4c3)cc2)CC1 [Compound 629]
28 | < 100 nM | < 10 nM | CC(C)N1CCC[C@H](c2ccc(-c3cc4c(N5CCN(C(=O)OC6COC6)CC5)ccnn4c3)cc2)C1 [Compound 630]
29 | < 100 nM | < 10 nM | CC(C)N1CCC[C@@H](c2ccc(-c3cc4c(N5CCN(C(=O)OC6COC6)CC5)ccnn4c3)cc2)C1 [Compound 631, (S)-oxetan-3-yl 4-(6-(4-(1-isopropylpiperidin-3-yl)phenyl)pyrrolo[1,2-b]pyridazin-4-yl)piperazine-1-carboxylate]
30 | < 100 nM | < 10 nM | CC(C)NC(=O)N1CCN(c2ccnn3cc(-c4ccc([C@@]5(C)CN(C(C)C)CCN5)cc4)cc23)CC1 [Compound 633]
31 | < 100 nM | < 10 nM | CC(C)NC(=O)N1CCN(c2ccnn3cc(-c4ccc([C@]5(C)CN(C(C)C)CCN5)cc4)cc23)CC1 [Compound 634]
32 | < 100 nM | < 10 nM | CC(C)N1CCC[C@@H](c2ccc(-c3cc4c(N5CCN(C(=O)OC6COC6)CC5)ccnn4c3)nc2)C1 [Compound 635]
33 | < 100 nM | < 10 nM | CC(C)N1CCC[C@H](c2ccc(-c3cc4c(N5CCN(C(=O)OC6COC6)CC5)ccnn4c3)nc2)C1 [Compound 636]
34 | < 100 nM | < 10 nM | CO[C@]1(c2ccc(-c3cc4c(N5CCN(C(=O)NC(C)C)CC5)ccnn4c3)cc2)CCN(C(C)C)C1 [Compound 637]
35 | < 100 nM | < 10 nM | CO[C@@]1(c2ccc(-c3cc4c(N5CCN(C(=O)NC(C)C)CC5)ccnn4c3)cc2)CCN(C(C)C)C1 [Compound 638]
36 | < 100 nM | < 10 nM | CCOC(=O)N1CCN(c2ccnn3cc(-c4ccc([C@]5(C)CN(C(C)C)CCN5C)cc4)cc23)CC1 [Compound 641]
37 | < 100 nM | < 10 nM | CCOC(=O)N1CCN(c2ccnn3cc(-c4ccc([C@@]5(C)CN(C(C)C)CCN5C)cc4)cc23)CC1 [Compound 642]
38 | < 100 nM | < 10 nM | CCNC(=O)N1CCN(c2ccnn3cc(-c4ccc([C@]5(OC)CCCN(C(C)C)C5)cn4)cc23)CC1 [Compound 645]
39 | < 100 nM | < 10 nM | CCNC(=O)N1CCN(c2ccnn3cc(-c4ccc([C@@]5(OC)CCCN(C(C)C)C5)cn4)cc23)CC1 [Compound 646]
40 | < 100 nM | < 10 nM | CCOC1(c2ccc(-c3cc4c(N5CCN(C(=O)OC6COC6)CC5)ccnn4c3)nc2)CCNCC1 [Compound 647]
41 | < 100 nM | < 10 nM | CC(C)NC(=O)N1CCN(c2ccnn3cc(-c4ccc(C5(F)CCN(C(C)C)CC5)cc4)cc23)CC1 [Compound 648]
42 | < 100 nM | < 10 nM | CC(C)NC(=O)N1CCN(c2ccnn3cc(-c4ccc(C5CCN(C(C)C)CC5)cc4F)cc23)CC1 [Compound 649]
43 | < 100 nM | < 10 nM | COC1(c2ccc(-c3cc4c(N5CCN(C(=O)OC6COC6)CC5)ccnn4c3)c(F)c2)CCNCC1 [Compound 650]
44 | < 100 nM | < 10 nM | CCOC(=O)N1CCN(c2ccnn3cc(-c4ccc(C5CCN(C(C)C)CC5)cc4Cl)cc23)CC1 [Compound 651]
45 | < 100 nM | < 10 nM | CC(C)N1CCC(c2ccc(-c3cc4c(N5CCN(C(=O)OCC(F)F)CC5)ccnn4c3)cc2)CC1 [Compound 652]
46 | < 100 nM | < 10 nM | CC(C)N1CCC[C@@H](c2ccc(-c3cc4c(N5CCN(C(=O)[C@H]6C[C@H](C#N)C6)CC5)ccnn4c3)nc2)C1 [Compound 653]
47 | < 100 nM | < 10 nM | CC(C)N1CCC[C@H](c2ccc(-c3cc4c(N5CCN(C(=O)[C@H]6C[C@H](C#N)C6)CC5)ccnn4c3)nc2)C1 [Compound 654]
48 | < 100 nM | < 10 nM | COC1(c2ccc(-c3cc4c(N5CCN(C(=O)C6CC(C#N)C6)CC5)ccnn4c3)cc2)CN(C(C)C)C1 (stereo not drawn) [Compound 655]
49 | < 100 nM | < 10 nM | CCO[C@@]1(c2ccc(-c3cc4c(N5CCN(C(=O)C6CC6)CC5)ccnn4c3)cc2)CCCN(C(C)C)C1 [Compound 656]
50 | < 100 nM | < 10 nM | CCO[C@]1(c2ccc(-c3cc4c(N5CCN(C(=O)C6CC6)CC5)ccnn4c3)cc2)CCCN(C(C)C)C1 [Compound 657]
51 | < 100 nM | < 10 nM | CC(C)[C@@H](C)NC(=O)N1CCN(c2ccnn3cc(-c4ccc(C5CCN(C(C)C)CC5)cc4)cc23)CC1 [Compound 663]

— patent publication US10233186B2, “Inhibitors of activin receptor-like kinase” (BLUEPRINT MEDICINES CORPORATION, priority 2016, dated 2019)
